Assay [1] is described as follows: DPPH radical scavenging assay (antioxidant activity). It is filed as biochemical. To be noted: 1000 μg/ml, 30 minutes. As for the experimental part:
Antioxidant activity of various Ashwagandha samples was measured using a 2,2-diphenyl-1-picrylhydrazyl (DPPH) radical scavenging assay. DPPH is a stable free radical that produces violet solution in ethanol and, upon reduction by antioxidant compounds, produces light yellow-to-colorless solutions. For comparative antioxidant activity analysis of […], relative to non- branded and branded Ashwagandha compositions, two different dilutions (100 μg/ml and 1000 μg/ml) of each sample were prepared in ethanol and 500 μl of each sample dilution was mixed (1:1) with 500 μl of 0.04 mg/ml DPPH (Sigma #D9132-1G) ethanolic solution. Gallic acid (a natural polyphenolic antioxidant) and sucrose were used as positive and negative controls, respectively. All samples and controls were thoroughly vortexed and incubated for 30 minutes at room temperature in the dark followed by absorbance (Abs) readings at 517 nm using a spectrophotometer. Percentage antioxidant activity was calculated using the formula: 100-(AbsSample-AbsBlank/AbsControl×100), where AbsSample=Sample Dilution+DPPH Solution; AbsBlank=Sample Dilution+DPPH solvent; and AbsControl=Sample Solvent+DPPH Solution.
Background: DPPH is a stable violet radical that fades when it is reduced.

In a further assay the test system is HEK293 cells. Description: cells. The conditions noted are these: Homo sapiens, HEK293, read-out: IC50 for H2O2 treatment (cell viability).

Results on two compounds are retold here after patent US20240123016A1, “WITHANOLIDE-ENRICHED COMPOSITIONS AND METHODS OF USE THEREOF” (priority 2021, published 2024).

In general, IC50 refers to the concentration that gives 50% inhibition.

Method for HEK293 cells: Cell viability was analyzed using the MTT assay described herein.

Regarding `O=C(O)c1cc(O)c(O)c(O)c1` [Gallic acid], the “percent anti-oxidant activity (%AA)” value in assay [1] was determined as 90.12±1.1%.
For the compound `OO` [H2O2, hydrogen peroxide], in the assay on HEK293 cells, the IC50 is 400 µM.
